Read-outs that look alike come from different tables or passages of the source.

The assay has as its system HCV Huh-luc/neo-ET cells (HCV replicon). Description: Luciferase-based HCV replicon assay, single agents and combinations. The note with it: for increase of potency in the presence of Compound 2: Compound 2 at concentrations readily achieved clinically, FIGS. 2b, 3b, Table 2. The format is cell-based, hepatitis C virus. How it is done:
The cell culture component of the assay is performed essentially as described by Bartenschlager et al., Hepatology, 2002, 35, 694-703, wherein exponentially growing HCV Huh-luc/neo-ET cells are seeded at 6×10^3 cells/well in 96 well assay plate. 24 hours later the cells are treated with various concentrations of compound or combination of compounds in triplicate using both fixed ratios and checkerboard matrices of test agents and cultured for 72 hours. The luciferase activity in the wells is determined using Bright-Glo reagent (Promega, Madison, Wis.) with a luminometer (Wallac 1420 Multilabel HTS Counter Victor 2). The background control is replicon cells treated with 100 nM BILN-2061, an inhibitor of the HCV protease. % Inhibition is determined for each compound concentration or combination of compounds in relation to the negative (no compound) control to calculate the EC50. In the case of ANA773, conditioned media from human PBMCs from multiple donors is pooled after treatment with 100 μM of the active of ANA773 for 24 hours.
Compound 2 was evaluated in combination with Interferon α-2a, Telaprevir (HCV NS3/4 protease inhibitor, also known as VX-950), PSI-6130 the active agent of R7128 (HCV NS5B nucleoside inhibitor), and ANA773 (TLR7 agonist). The 50% inhibitory concentration (EC50) of each compound or combination of compounds is determined independently to determine the range of concentrations used to characterize the interaction of two agents in inhibiting the HCV replicon. […] The ratio of the two compounds tested either remained fixed or is varied across the dosing range to explore the greatest combination surface.
The combination data is analyzed using CalcuSyn (Biosoft, Ferguson, Mo.), a computer program based on the method of Chou and Talalay, J. Biol. Chem., 1977, 252, 6438-6442. Combination index (CI) values for each experimental combination are calculated at the EC50, EC75 and EC90 levels. CI values of <1, 1, and >1 indicate synergy, an additive effect, and antagonism, respectively.

A word on the EC90: it is the concentration needed for an effect of 90%. Regarding `C[C@@]1(F)[C@H](O)[C@@H](CO)O[C@H]1n1ccc(N)nc1=O` [PSI-6130], the “increase of potency in the presence of Compound 2” value was 4-5 fold. The EC90 (Compound 2 at 0 ng/mL (agent alone), read-out: EC90) amounted to 11600 nM. Also, the EC90 (in presence of fixed Compound 2 at 6 ng/mL, read-out: EC90) is 6000 nM. Further, the EC90 (in presence of fixed Compound 2 at 17 ng/mL, read-out: EC90) was found to be 2400 nM.
Regarding `CCC[C@H](NC(=O)[C@@H]1[C@H]2CCC[C@H]2CN1C(=O)[C@@H](NC(=O)[C@@H](NC(=O)c1cnccn1)C1CCCCC1)C(C)(C)C)C(=O)C(=O)NC1CC1` [Telaprevir], the “increase of potency in the presence of Compound 2” value is 2-3 fold. For the same compound, the EC90 (Hepatitis C virus, Huh-luc/neo-ET, Compound 2 at 0 ng/mL (agent alone)) was found to be 2800 nM. In addition, the EC90 (Hepatitis C virus, Huh-luc/neo-ET, in presence of fixed Compound 2 at 6 ng/mL) is 2400 nM. The EC90 (Hepatitis C virus, Huh-luc/neo-ET, in presence of fixed Compound 2 at 17 ng/mL) was determined as 1900 nM. Also, the EC90 (Hepatitis C virus, Huh-luc/neo-ET, in presence of fixed Compound 2 at 170 ng/mL) was found to be 1300 nM.

For the origin of these results see patent US20110229438A1, “METHOD OF INHIBITING HEPATITUS C VIRUS BY COMBINATION OF A 5,6-DIHYDRO-1H-PYRIDIN-2-ONE AND ONE OR MORE ADDITIONAL ANTIVIRAL COMPOUNDS” (priority 2008, published 2011).
